From PubChem BioAssay AID2060502 (Molecular Pharmacology Branch, DTP, NCI, 2025)

Test system: 885724-159-R-J1-PDC complex spheroid viability
Test: Anticancer human tumor 885724-159-R-J1-PDC patient-derived pancreatic adenocarcinoma cell line growth inhibition [GQUAD]
Conditions: for IC50: curve of first compound; for viability, T/C: stronger effect = lower value
Method in brief: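 Multi-cell-type spheroids of tumor cells with HUVEC and mesenchymal stem cells, treated with drug combinations. Concentrations descend in half-log steps from near clinical Cmax, or from 10 microM where Cmax is unknown; viability read-out.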

[1] = second compound 0.0316 µM, first compound 0.0316 µM
[2] = second compound 0.0316 µM, first compound 0.316 µM
[3] = second compound 0.1 µM, first compound 0.0316 µM
[4] = second compound 0.1 µM, first compound 0.316 µM
[5] = second compound 0.316 µM, first compound 0.0316 µM
[6] = second compound 0.316 µM, first compound 0.316 µM
[7] = second compound 1 µM, first compound 0.0316 µM
[8] = second compound 1 µM, first compound 0.316 µM
[9] = second compound 3.16 µM, first compound 0.0316 µM
[10] = second compound 3.16 µM, first compound 0.316 µM
[11] = second compound 10 µM, first compound 0.0316 µM
[12] = second compound 10 µM, first compound 0.316 µM
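Note: spheroids exposed to agents for seven days before readout.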
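Throughout, for viability, T/C: percent of vehicle control viability where 100% = DMSO wells.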

For `C=CC(=O)N1CCN(c2nc(=O)n(-c3c(C)ccnc3C(C)C)c3nc(-c4c(O)cccc4F)c(F)cc23)C(C)C1` (centres undefined) + CN(C)c1ccc(Nc2c3ccc(NC(=O)CCN4CCCC4)cc3nc3cc(NC(=O)CCN4CCCC4)ccc23)cc1, the IC50 (second compound 0.0316 µM) was greater than 10000 nM, the IC50 (second compound 0.1 µM) was greater than 10000 nM and the IC50 (second compound 0.316 µM) was greater than 10000 nM. It also gave an IC50 (second compound 1 µM) greater than 10000 nM, an IC50 (second compound 3.16 µM) greater than 10000 nM and an IC50 (second compound 10 µM) greater than 10000 nM. The viability, T/C [1] was 98.5%, the viability, T/C (second compound 0.0316 µM, first compound 0.1 µM) was 101% and the viability, T/C [2] was 96.2%. For the same compound, the viability, T/C (second compound 0.0316 µM, first compound 1 µM) was 93.4%, the viability, T/C (second compound 0.0316 µM, first compound 3.16 µM) was 103% and the viability, T/C (second compound 0.0316 µM, first compound 10 µM) was 95.6%. It also gave a viability, T/C [3] of 101%, a viability, T/C (second compound 0.1 µM, first compound 0.1 µM) of 106% and a viability, T/C [4] of 96.5%. For the same compound, the viability, T/C (second compound 0.1 µM, first compound 1 µM) was 98.5%, the viability, T/C (second compound 0.1 µM, first compound 3.16 µM) was 107% and the viability, T/C (second compound 0.1 µM, first compound 10 µM) was 87.5%. It also gave a viability, T/C [5] of 90.5%, a viability, T/C (second compound 0.316 µM, first compound 0.1 µM) of 95.3% and a viability, T/C [6] of 82.6%. For the same compound, the viability, T/C (second compound 0.316 µM, first compound 1 µM) was 82.5%, the viability, T/C (second compound 0.316 µM, first compound 3.16 µM) was 103% and the viability, T/C (second compound 0.316 µM, first compound 10 µM) was 89.2%. It also gave a viability, T/C [7] of 86.2%, a viability, T/C (second compound 1 µM, first compound 0.1 µM) of 79.4% and a viability, T/C [8] of 70.6%. It also gave a viability, T/C (second compound 1 µM, first compound 1 µM) of 79.3%, a viability, T/C (second compound 1 µM, first compound 3.16 µM) of 85.3% and a viability, T/C (second compound 1 µM, first compound 10 µM) of 82.3%. For the same compound, the viability, T/C [9] was 67%, the viability, T/C (second compound 3.16 µM, first compound 0.1 µM) was 74.1% and the viability, T/C [10] was 84.4%. For the same compound, the viability, T/C (second compound 3.16 µM, first compound 1 µM) was 69.4%, the viability, T/C (second compound 3.16 µM, first compound 3.16 µM) was 83.8% and the viability, T/C (second compound 3.16 µM, first compound 10 µM) was 79.6%. The viability, T/C [11] was 64.8%, the viability, T/C (second compound 10 µM, first compound 0.1 µM) was 76% and the viability, T/C [12] was 85.2%. For the same compound, the viability, T/C (second compound 10 µM, first compound 1 µM) was 84.6%, the viability, T/C (second compound 10 µM, first compound 3.16 µM) was 87.6% and the viability, T/C (second compound 10 µM, first compound 10 µM) was 73.3%.
For `Cc1[nH]c2ccccc2c1CCNCc1ccc(/C=C/C(=O)NO)cc1` + CN(C)c1ccc(Nc2c3ccc(NC(=O)CCN4CCCC4)cc3nc3cc(NC(=O)CCN4CCCC4)ccc23)cc1, the IC50 (second compound 0.0316 µM) was greater than 316 nM, the IC50 (second compound 0.1 µM) was greater than 316 nM and the IC50 (second compound 0.316 µM) was 286 nM. For the same compound, the IC50 (second compound 1 µM) was 214 nM, the IC50 (second compound 3.16 µM) was 92.9 nM and the IC50 (second compound 10 µM) was 152 nM. For the same compound, the viability, T/C (second compound 0.0316 µM, first compound 0.000999 µM) was 103%, the viability, T/C (second compound 0.0316 µM, first compound 0.00316 µM) was 98.3% and the viability, T/C (second compound 0.0316 µM, first compound 0.00999 µM) was 93.1%. It also gave a viability, T/C [1] of 96.9%, a viability, T/C (second compound 0.0316 µM, first compound 0.0999 µM) of 124% and a viability, T/C [2] of 60.1%. For the same compound, the viability, T/C (second compound 0.1 µM, first compound 0.000999 µM) was 99.8%, the viability, T/C (second compound 0.1 µM, first compound 0.00316 µM) was 91.7% and the viability, T/C (second compound 0.1 µM, first compound 0.00999 µM) was 95%. It also gave a viability, T/C [3] of 125%, a viability, T/C (second compound 0.1 µM, first compound 0.0999 µM) of 105% and a viability, T/C [4] of 54.1%. The viability, T/C (second compound 0.316 µM, first compound 0.000999 µM) was 84.7%, the viability, T/C (second compound 0.316 µM, first compound 0.00316 µM) was 94% and the viability, T/C (second compound 0.316 µM, first compound 0.00999 µM) was 95.3%. It also gave a viability, T/C [5] of 84.6%, a viability, T/C (second compound 0.316 µM, first compound 0.0999 µM) of 112% and a viability, T/C [6] of 45.7%. For the same compound, the viability, T/C (second compound 1 µM, first compound 0.000999 µM) was 90.3%, the viability, T/C (second compound 1 µM, first compound 0.00316 µM) was 75.6% and the viability, T/C (second compound 1 µM, first compound 0.00999 µM) was 75.5%. For the same compound, the viability, T/C [7] was 77.5%, the viability, T/C (second compound 1 µM, first compound 0.0999 µM) was 69.8% and the viability, T/C [8] was 40.3%. The viability, T/C (second compound 3.16 µM, first compound 0.000999 µM) was 65.2%, the viability, T/C (second compound 3.16 µM, first compound 0.00316 µM) was 81.4% and the viability, T/C (second compound 3.16 µM, first compound 0.00999 µM) was 82.1%. It also gave a viability, T/C [9] of 73.1%, a viability, T/C (second compound 3.16 µM, first compound 0.0999 µM) of 48.5% and a viability, T/C [10] of 40.1%. For the same compound, the viability, T/C (second compound 10 µM, first compound 0.000999 µM) was 65%, the viability, T/C (second compound 10 µM, first compound 0.00316 µM) was 58.3% and the viability, T/C (second compound 10 µM, first compound 0.00999 µM) was 59.6%. The viability, T/C [11] was 55.6%, the viability, T/C (second compound 10 µM, first compound 0.0999 µM) was 69.3% and the viability, T/C [12] was 30%.
